Each block holds one molecule with its values, some of them ahead of it.
Key:
[1] = target: T1, D4 (Homo sapiens, UniProt P21917, DEL265-296); test: D4 receptor-binding affinity (reduction of ^3 H-spiperone binding); conditions: for Ki: ^3 H-spiperone displacement, Ki by Cheng and Prusoff transformation of IC50
T1 construct: expressed in transfected cells; host or cells: HEK 298 cells (so in the source); membrane preparations
T1 sequence (P21917 with tags, fused parts or gaps DEL265-296): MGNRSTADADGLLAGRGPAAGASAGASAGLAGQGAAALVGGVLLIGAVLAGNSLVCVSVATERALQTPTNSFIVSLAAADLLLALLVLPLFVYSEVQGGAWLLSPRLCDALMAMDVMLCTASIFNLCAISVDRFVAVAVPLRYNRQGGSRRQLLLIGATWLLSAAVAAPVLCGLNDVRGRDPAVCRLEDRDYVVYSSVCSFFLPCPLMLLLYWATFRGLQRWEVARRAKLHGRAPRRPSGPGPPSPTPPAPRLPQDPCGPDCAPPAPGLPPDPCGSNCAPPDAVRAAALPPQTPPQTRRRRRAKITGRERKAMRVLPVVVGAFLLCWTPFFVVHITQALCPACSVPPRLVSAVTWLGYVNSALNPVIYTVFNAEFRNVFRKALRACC
Description: (§1) The potency of the test compound to reduce ^3 H-spiperone binding is directly correlated to its binding affinity for the receptor.
(§2) The test compounds were assayed at a range of concentrations and the % inhibition of ^3 H-spiperone binding at each test concentration was measured. Specific binding in the absence of test compound is the difference of total binding minus non-specific binding and similarly specific binding (in the presence of test compound) is the difference of displacement binding minus non-specific binding.
(§3) where [L] is the concentration of ^3 H-spiperone used in the assay and KD is the dissociation constant of ^3 H-spiperone determined independently under the same binding conditions.

[2] = target: T2, D2 (Homo sapiens, UniProt P14416); test: D2 receptor-binding affinity (reduction of ^3 H-spiperone binding); conditions: for Ki: ^3 H-spiperone displacement, Ki by Cheng and Prusoff transformation of IC50
T2 construct: expressed in transfected cells; host or cells: GH4C1 (rat pituitary) cells, stably transfected; membrane preparations
Description: as §1, §2, §3

[3] = target: D4 receptor; conditions: marketed products, background statement; cited from earlier work
[4] = tested on: D4 receptor relative to the D2 receptor; conditions: marketed products, background statement; cited from earlier work

T2 sequence (P14416 1-414 isoform P14416-2): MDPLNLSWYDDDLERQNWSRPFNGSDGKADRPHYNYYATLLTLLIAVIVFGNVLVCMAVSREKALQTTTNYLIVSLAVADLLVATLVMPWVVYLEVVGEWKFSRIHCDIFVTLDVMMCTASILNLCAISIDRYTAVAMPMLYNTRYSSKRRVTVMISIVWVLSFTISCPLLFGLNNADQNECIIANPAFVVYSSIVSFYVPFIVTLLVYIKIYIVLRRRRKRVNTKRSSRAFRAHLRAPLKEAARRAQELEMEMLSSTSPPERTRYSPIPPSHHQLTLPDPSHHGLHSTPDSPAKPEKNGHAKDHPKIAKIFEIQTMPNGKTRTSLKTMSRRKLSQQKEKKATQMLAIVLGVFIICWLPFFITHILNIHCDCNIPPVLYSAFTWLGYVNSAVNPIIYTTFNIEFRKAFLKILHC

Molecule: 3-[4-(5-iodopyridin-2-yl)-piperazin-1-yl]methyl-1H-pyrrolo[2,3-b]pyridine [Example 2]
- Ki [1]: 0.91 nM
- Ki [2]: 621 nM

Molecule: 3-[4-(pyridin-2-yl)-piperazin-1-yl]methyl-1H-pyrrolo[2,3-b]pyridine [Example 1]
- Ki [1]: 1 nM
- Ki [2]: 3660 nM

- inhibition at 0.001 µM ([1]; 1 nM, ^3 H-spiperone): 26%
- inhibition at 0.01 µM ([1]; 10 nM, ^3 H-spiperone): 78%
- inhibition at 0.1 µM ([1]; 100 nM, ^3 H-spiperone): 98%
- inhibition at 0.001 µM ([2]; 1 nM, ^3 H-spiperone): < 10%
- inhibition at 0.01 µM ([2]; 10 nM, ^3 H-spiperone): < 10%
- inhibition at 0.1 µM ([2]; 100 nM, ^3 H-spiperone): < 10%
Molecule: Brc1ccc(N2CCN(Cc3c[nH]c4ncccc34)CC2)nc1 [Example 3, 3-[4-(5-bromopyridin-2-yl)-piperazin-1-yl]methyl-1H-pyrrolo[2,3-b]pyridine]

Molecule: CN1CCN(C2=Nc3cc(Cl)ccc3Oc3ccccc32)CC1 [isoloxapine]
- Ki [3]: ~20 nM
- preference for binding to the D4 receptor relative to the D2 receptor [4]: about 10 fold
